Experimental findings from patent US20250051510A1, “CARBON-IODINE CONJUGATED POLYMER AND PREPARATION THEREOF, AND USE THEREOF FOR PREPARING LOCALIZATION MARKER” (Huazhong University of Science and Technology, priority 2021, published 2025) are described below.

For one data set, the system named is rat erythrocytes. Nature of the data set: Hemolysis test with rat erythrocytes. It counts as cell-based. The settings on record: PIDA dispersions of different concentrations; Triton = 100% hemolysis control. The method, then:
When a material is applied in the biomedical field, in addition to the special imaging/treatment effect of the material, the biocompatibility of the material itself is the topic that people are most concerned about. At the cell level, PIDA dispersions of different concentrations were mixed with rat erythrocytes in the present invention. […] In addition, in the present invention, PIDA dispersions of different concentrations were respectively incubated together with 4Tl cells (mouse breast cancer cells), NIH 3T3 cells (mouse embryonic fibroblasts) and HEK 293T (human embryonic kidney cells) for 12 hours, and cell viability was verified by means of MTT verification.

Data set [1] in a line: Local injection into rat leg muscles under CT guidance, CT marking over time. It counts as in vivo. The settings on record: rat leg muscle, iodine content increased by 25 times. The method, then:
In order to verify whether the super-strong CT imaging effect of PIDA is practically applicable, the PIDA dispersion and iohexol with the same iodine content were injected locally into leg muscles of a rat respectively under CT guidance in the present invention. For effective CT marking, the CT signal intensity thereof should be 2 times or more that of background tissues. A background CT signal of rat muscle tissues is about 50 HU, so the CT marking signal intensity exceeding 100 HU can be regarded as effective CT marking. […] To further verify the high efficiency and location stability of PIDA CT imaging, in the present invention, iohexol with the iodine content being increased by 25 times was injected into a corresponding leg muscle site of a rat.

In the case of Triton, the hemolysis rate entry in the data set with rat erythrocytes was “complete hemolysis”. Take `CC(=O)N(CC(O)CO)c1c(I)c(C(=O)NCC(O)CO)c(I)c(C(=O)NCC(O)CO)c1I` (centres unmarked) [iohexol]: the “time until CT enhancement completely disappeared” value in data set [1] is not above 6 h.
